Each block holds one compound with its values, some of them ahead of it.
What was measured:
foam mouse macrophages = test: Defoaming-promoting activity (cholesterol efflux into medium); assay type: cell-based; settings: for Amount of cholesterol transferred (control group = 100%) Mean: method of Example 4; for action on transfer of cholesterol: result in words, summary of Tables 3 and 7
Method: The activity of the test compound on defoaming was measured by treating the foam mouse macrophages prepared in Example 1, with RPMI 1640-25 mM HEPES medium (pH 7) containing the test compound for 24 hours, followed by adding 20% fetal bovine serum (JRH Ltd.), and determining the radioactivity released into the medium after further culture for 24 hours. The defoaming-promoting activity of a group treated with the compound was calculated as a ratio (%) of the radioactivity corrected by a blank value to that of a control group. The blank value used was the radioactivity in the absence of the test compound and 20% fetal bovine serum. The defoaming-promoting activities of the control group and the group treated with the compound were corrected by the amount of cell protein measured by the BCA assay kit from Pierce Ltd. after the cells were solubilized with 0.1 N NaOH/0.1% SDS solution.
The promoting action of Compound A on defoaming was measured by using the method described in Example 4.

[1] = tested on: Foam cells derived from mouse peritoneal macrophages; test: Promoting action on decomposition of intracellular cholesteryl esters; assay type: cell-based; settings: for Content of intracellular cholesteryl esters (control group = 100%) TLC method Mean / Content of intracellular cholesteryl esters (control group = 100%) Methanol method Mean: 48 hours
Method: Foam cells derived from mouse peritoneal macrophages, prepared in the method described in Example 1, were cultured for 48 hours in an RPMI 1640-25 mM HEPES medium (pH 7) containing Compound A, and a reduction in the intracellular cholesteryl ester content was quantified by a TLC fractionation method or an aqueous methanol extraction method. The measurement by the TLC fractionation method was conducted by extracting the whole intracellular lipid with a hexane-isopropanol mixture (3:2, v/v) and then fractionating the lipid by TLC under the same conditions as in Example 1 to quantify the intracellular cholesteryl esters. The measurement by the aqueous methanol extraction method was conducted by treating the cells with 80% methanol for 10 minutes, then solubilizing the cells with 0.1 N NaOH/0.1% SDS solution, and measuring their radioactivity. Each value of radioactivity was corrected by the amount of cell proteins measured with a BCA assay kit (Pierce Ltd.) after the cells were solubilized with 0.1 N NaOH/0.1% SDS solution, and assuming that the radioactivity (dpm/mg cell protein) of the control group in the absence of the test compound was 100%, the content of intracellular cholesteryl esters (%) in the group treated with Compound A was calculated.

foamed macrophages = test: Intracellular cholesteryl ester content by enzyme method; assay type: cell-based, mouse; settings: for Content of intracellular cholesteryl esters (control group = 100%) Mean: method of Example 5 (enzyme method); for action on reduction of the cholesteryl ester content: result in words, summary of Tables 4 and 8
Method: The mouse peritoneal macrophages prepared in Example 1 were cultured for 24 hours in an RPMI 1640-25 mM HEPES medium (pH 7) containing β-VLDL (150 μg/ml) and a conjugate of 0.2 mM oleic acid/0/2% bovine serum albumin to obtain foam cells in which cholesteryl esters were accumulated. These foamed macrophages were treated with an RPMI 1640-25 mM HEPES medium (pH 7) containing the test compound for 24 hours, and then the whole lipid was extracted. The lipid thus extracted was dissolved in isopropanol and measured for the amounts of the whole cholesterol and free cholesterol by the enzyme method (E-Test Wako, Wako Ltd.), and, from the difference therebetween, the amount of cholesteryl esters was calculated. The amounts of cell protein in a control group and a group treated with the compound were measured with a BCA assay kit from Pierce Ltd. after the cells were solubilized with 0.1 N NaOH/0.1% SDS solution, and assuming that the amount of cholesteryl esters (μg/mg cell protein) in the cells in the control group was 100%, the amount of cholesteryl esters (%) in the group treated with the compound was calculated.
The action of Compound A on reduction of the content of intracellular cholesteryl esters was measured by using the method described in Example 5.

[2] = tested on: Mouse peritoneal macrophages; test: Inhibitory action on synthesis of intracellular cholesteryl esters; assay type: cell-based; settings: for Content of intracellular cholesteryl esters (control group = 100%) TLC method Mean / Content of intracellular cholesteryl esters (control group = 100%) Methanol method Mean: 24 hours, 25-hydroxycholesterol
Method: Mouse peritoneal macrophages prepared in the method described in Example 1 were cultured for 24 hours in an RPMI 1640-25 mM HEPES medium (pH 7) containing 1% fetal bovine serum and [1,2,6,7-^3H]-cholesterol (37 Kbq/ml, NEN Ltd.). The macrophages were labeled with ^3H-cholesterol and then cultured for 24 hours in an RPMI 1640-25 mM HEPES medium (pH 7) containing 2-[6-chloro-4-(2-methylphenyl)-2-oxo-2H-chromene-3-yl]-N-(2,6-dimethoxyphenyl) acetamide (referred to hereinafter as Compound A), 25-hydroxycholesterol (5 μg/ml, Sigma) and 0.2 mM oleic acid/0.2% bovine serum albumin, and the content of synthesized intracellular cholesteryl esters was quantified by the TLC fractionation method or the aqueous methanol extraction method (hereinafter also referred to as the methanol method). The measurement by the TLC fractionation method was conducted by extracting the whole intracellular lipid with a hexane-isopropanol mixture (3:2, v/v) and then fractionating the lipid in TLC under the same conditions as in Example 1 to quantify the intracellular cholesteryl esters. The measurement by the aqueous methanol extraction method was conducted by treating the cells with 80% methanol for 10 minutes, then solubilizing the cells with 0.1 N NaOH/0.1% SDS solution, and measuring their radioactivity. Each value of radioactivity was corrected by the amount of cell proteins measured with a BCA assay kit (Pierce Ltd.) after the cells were solubilized with 0.1 N NaOH/0.1% SDS solution, and assuming that the radioactivity (dpm/mg cell protein) of the control group in the absence of the test compound was 100%, the content of intracellular cholesteryl esters (%) in the group treated with Compound A was calculated.

foam macrophages = test: Measurement of regulatory activity on intracellular cholesteryl ester cycle (aqueous methanol extraction); assay type: cell-based, mouse
Method: According to the method of Hakamada et al. (“Jikken Igaku (Experimental Medicine), Extra Issue”, vol. 14, No. 12, Circulation Study Protocol, pp. 49-52 (1996)), peritoneal macrophages were prepared from C57BL6J mice stimulated with thioglycolate, and then cultured for 24 hours in RPMI 1640-25 mM HEPES (pH 7) containing β-very low-density lipoprotein (β-VLDL, 150 μg cholesterol/ml) prepared according to the method of Ishii et al. (Arterioscler. Thromb., 12, 1139-1145, 1992), a conjugate of 0.2 mM oleic acid/0.2% bovine serum albumin, and [1,2,6,7-^3H]-cholesterol (NEN, 37 KBq/ml) to obtain foam cells in which cholesteryl esters were accumulated. […] A part of the extract was fractionated by the TLC method (Merck Silica Gel Plate No. 5582, developing solvent: petroleum ether/diethyl ether/acetic acid=9:1:0.1), free cholesterol and cholesteryl ester fractions were cut off, a liquid scintillator was added, and the radioactivity thereof was measured.
In an RPMI 1640-HEPES medium (pH 7) containing the test compound, the foam macrophages prepared in Example 1 were cultured for 24 hours. The cells were extracted with 80% aqueous methanol for 10 minutes and then solubilized with 0.1 NaOH/0.1% SDS solution, a liquid scintillator was added to a portion thereof, and its radioactivity was measured. […]

Content of intracellular cholesteryl esters (control group = 100%) Mean (foamed macrophages; 0.01 mM): 63% | Content of intracellular cholesteryl esters (control group = 100%) Mean (foamed macrophages; 0.1 mM): 48% | action on reduction of the cholesteryl ester content (foamed macrophages): strong action
Structure (SMILES): COc1cccc(OC)c1NC(=O)Cc1c(-c2ccccc2C)c2cc(Cl)ccc2oc1=O [Compound A, 2-[6-chloro-4-(2-methylphenyl)-2-oxo-2H-chromene-3-yl]-N-(2,6-dimethoxyphenyl) acetamide]
Amount of cholesterol transferred (control group = 100%) Mean (foam mouse macrophages; 0.01 mM): 142% | Amount of cholesterol transferred (control group = 100%) Mean (foam mouse macrophages; 0.1 mM): 191% | action on transfer of cholesterol (foam mouse macrophages): strong action | Content of intracellular cholesteryl esters (control group = 100%) TLC method Mean ([1]; 0.01 mM): 71% | Content of intracellular cholesteryl esters (control group = 100%) Methanol method Mean ([1]; 0.01 mM): 74% | Content of intracellular cholesteryl esters (control group = 100%) TLC method Mean ([1]; 0.1 mM): 8% | Content of intracellular cholesteryl esters (control group = 100%) Methanol method Mean ([1]; 0.1 mM): 14% | promoting activity on degradation of cholesteryl esters ([1]; result in words, summary of Table 6): strong promoting activity | Content of intracellular cholesteryl esters (control group = 100%) TLC method Mean ([2]; 0.01 mM): 44% | Content of intracellular cholesteryl esters (control group = 100%) Methanol method Mean ([2]; 0.01 mM): 41% | Content of intracellular cholesteryl esters (control group = 100%) TLC method Mean ([2]; 0.03 mM): 16% | Content of intracellular cholesteryl esters (control group = 100%) Methanol method Mean ([2]; 0.03 mM): 19% | Content of intracellular cholesteryl esters (control group = 100%) TLC method Mean ([2]; 0.1 mM): 5% | Content of intracellular cholesteryl esters (control group = 100%) Methanol method Mean ([2]; 0.1 mM): 9% | inhibitory activity on synthesis of cholesteryl esters ([2]; result in words, summary of Table 5): potent inhibitory activity

Cholesteryl ester content (%) (foamed macrophages; 100 μM, 24 hours, enzyme method, control = 100%): 78 ± 4 p < 0.01 % | action on reduction of the cholesteryl ester content (foamed macrophages): exerts an action
Structure (SMILES): CCCC(=O)Nc1ncnc2c1ncn2[C@@H]1O[C@@H]2COP(=O)(O)O[C@H]2[C@H]1OC(=O)CCC [dbc-AMP, Dibutyryl cyclic AMP, reference compound]
Amount of cholesterol efflux (%) (foam mouse macrophages; 100 μM, 24 hours then 20% fetal bovine serum 24 hours, control = 100%): 160 ± 15 p < 0.01 % | action on transfer of cholesterol (foam mouse macrophages): exerts an action | Cholesteryl ester content (%) (foam macrophages; 100 μM, 24 hours, 80% aqueous methanol extraction, control = 100%): 60 ± 12 p < 0.01 % | cholesteryl ester cycle-regulating action (foam macrophages; result in words, summary of Table 2): potent cholesteryl ester-hydrolytic activity
